# From US20240398783A1, “Compounds and Pharmaceutical Compositions Comprising Inhibitors of Amyloid Peptide Interactions with Glycosaminoglycans, Methods of Treatment and Use Thereof” (Gismo Therapeutics, Inc., priority 2021, published 2024)
# Where a name gives a salt, the structure may show the parent alone. Read-outs that look alike come from different tables or passages of the source.
# Legend:
# Design in all cases: species or system porcine
# [1] = biological target: T1, Amyloid-beta(1-42) oligomer binding to heparin (HS-GAG) (Homo sapiens, UniProt P05067); assay: Inhibition of Amyloid-beta(1-42) oligomer binding to immobilized heparin-BSA (ELISA); settings: for IC50: co-incubation on heparin-BSA plates, read-out: Abeta42/Heparin Activity (IC-50); for inhibition at 30 µM: read-out: Abeta42/Heparin Activity (% inhibition class)
# T1 construct: Beta-amyloid (1-42) was purchased from rPeptide (Cat. No. A1163); purchased rPeptide A1163
# T1 sequence (P05067 672-713): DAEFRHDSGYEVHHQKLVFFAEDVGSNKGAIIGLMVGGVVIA
# Procedure: (§1) Porcine intestinal mucosa heparin conjugated to Bovine Serum Albumin (Heparin-BSA) was prepared as described (Najjam, S. et al. 1997, Cytokine 12, 1013-1022). Heparin is a sulfated HS-GAG and is commonly used as a HS-GAG in biochemical and binding assays (Lindahl, U. and Kjellen, L. (2013) ibid). Heparin-BSA at 0.01 mg/ml in Phosphate Buffered Saline (PBS; pH 7.4) was added to a 96 well polystyrene ELISA plate (NUNC Cat. No. 449824; 100 μl per well) and incubated Over Night (ON) at 4 degrees Celsius. For negative controls, ELISA plates were coated with BSA instead of Heparin-BSA, using the same procedure. Following the incubation, the plate was washed consecutively, by immersion, with de-ionized water and PBS (pH 7.4). The ELISA plate was then blocked with nonfat milk (2%, 200 μl per well) for 2 hours at Room Temperature (RT) with gentle shaking. Following blocking, the plate was washed with de-ionized water then PBS (pH 7.4). GBAPs were dissolved and diluted in PBS (pH 6.5, supplemented with 0.1% BSA) at desired concentrations, added to the ELISA plates containing immobilized Heparin-BSA (100 μl per well) and incubated for 2 hours at RT with gentle shaking. Following incubation, the plate was washed with de-ionized water and three times with PBS (pH 6.5) plus Tween. Bound GBAP was detected by a monoclonal antibody specific for that GBAP, followed by incubation with secondary antibody conjugated to horseradish peroxidase (HRP). Antibody was diluted in PBS (pH 6.5 supplemented with 1% BSA). Following each incubation with antibody, the plate was washed with de-ionized water and three times with PBS (pH 6.5) wash buffer containing 0.1% Tween. The peroxidase substrate chromogen, TMB (Dako Cat. No. S1599) was added (100 μl per well) to the ELISA plate and incubated at room temperature. After 5 minutes ELISA Stop Solution (hydrochloric acid 1N, sulfuric acid 3N) was added (100 μl per well) to stop the peroxidase catalyzed colorimetric reaction. The Optical Density of the samples was measured at 450 nm using an ELISA plate reader (BioTek Synergy H1). Following color development, the % inhibition compared to control (BSA-coated plates) was determined. IC-50s were calculated using GraphPad Prism software.
# (§2) The assay was performed as described in Example 43, with the following modifications. Following to coating the plates with Heparin-BSA, plates were washed as described. The compounds were dissolved in DMSO at 10 mM final concentration and further diluted prior to assay. DMSO concentration in the screening well was up to 2%. Individual compounds were co-incubated with Beta-amyloid peptides on plates containing immobilized heparin. Beta-amyloid (1-42) was purchased from rPeptide (Cat. No. A1163) and used to prepare oligomers according to Stine et al., 2003 (J Biol Chem. 278(13):11612-22) as follows. 1,1,1,3,3,3-Hexafluoro-2-propanol- (HFIP; Sigma Cat. No. 105228)-treated Beta amyloid (1-42) was dissolved in dry DMSO (Sigma Cat. No. D2650) to 5 mM concentration. Dissolved Beta amyloid (1-42) was then diluted to 100 μM in ice-cold cell culture medium (phenol red-free Ham's F-12; Caisson Labs, Cat. No. HFL05), followed immediately by vortexing for 30 seconds, and incubating at 4 degrees Celsius for 24 h. Resulting Beta amyloid (1-42) oligomers were centrifuged at 12,000 rpm for 10 min at 4 degree Celsius to remove aggregates. Oligomers were then quickly frozen and kept in aliquots at −80 degrees Celsius. Beta-amyloid (1-40) from rPeptide (Cat No. A1153) was dissolved in DMSO, quickly frozen and kept in aliquots at −80 degrees Celsius. Beta-amyloid (1-42) oligomers or Beta-amyloid (1-40) diluted in PBS (pH 6.5, supplemented with BSA, 0.1%) were added to the ELISA plate (100 μl per well) and incubated for 2 hours at RT with gentle shaking. Following the incubation, the plate was washed with de-ionized water and three times with PBS (pH 6.5) plus Tween. […]
# [2] = biological target: Amyloid-beta(1-40) binding to heparin (HS-GAG) (Homo sapiens, UniProt P05067); assay: Inhibition of Amyloid-beta(1-40) binding to immobilized heparin-BSA (ELISA); settings: for IC50: Abeta(1-40), co-incubation on heparin-BSA plates; for inhibition at 30 µM: read-out: Abeta40/Heparin Activity (% inhibition class)
# Chain of Amyloid-beta(1-40) binding to heparin (HS-GAG) (P05067 672-711): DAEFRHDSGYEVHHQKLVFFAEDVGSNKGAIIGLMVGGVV
# Procedure: as §1, §2
# [3] = biological target: TDP-43 binding to heparin (HS-GAG) (Homo sapiens, UniProt Q13148); assay: Inhibition of TDP-43 binding to immobilized heparin-BSA (ELISA); settings: for IC50: TDP-43, heparin-BSA; for inhibition at 30 µM: read-out: TDP43/Heparin Activity (% inhibition class)
# Chain of TDP-43 binding to heparin (HS-GAG) (Q13148 whole entry): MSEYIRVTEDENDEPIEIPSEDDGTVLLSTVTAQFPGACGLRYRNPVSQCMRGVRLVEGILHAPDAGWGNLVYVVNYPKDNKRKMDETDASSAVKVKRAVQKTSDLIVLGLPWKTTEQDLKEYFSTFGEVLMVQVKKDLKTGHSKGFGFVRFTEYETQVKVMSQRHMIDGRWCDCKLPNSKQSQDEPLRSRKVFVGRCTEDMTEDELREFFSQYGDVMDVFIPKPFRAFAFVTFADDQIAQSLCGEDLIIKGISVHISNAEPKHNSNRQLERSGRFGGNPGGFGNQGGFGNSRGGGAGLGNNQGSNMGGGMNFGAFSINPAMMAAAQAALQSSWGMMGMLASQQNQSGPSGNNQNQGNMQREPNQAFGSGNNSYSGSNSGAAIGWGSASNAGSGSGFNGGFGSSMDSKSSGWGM
# Procedure: as §1
# The assay was performed as described in Example 43, with the following modifications.
# Following to coating the plates with Heparin-BSA, plates were washed as described. The compounds were dissolved in DMSO at 10 mM final concentration and further diluted prior to assay. DMSO concentration in the screening well was up to 2%. Individual compounds were co-incubated with TDP-43 on plates containing immobilized heparin. TDP43 from R&D System (Cat. No. AP-190) was quickly frozen and kept in aliquots at −80 degrees Celsius. TDP-43 dissolved in PBS (pH 6.5, supplemented with BSA, 0.1%) was added to the ELISA plate (100 μl per well) and incubated for 2 hours at RT with gentle shaking. Following the incubation, the plate was washed with de-ionized water and three times with PBS (pH 6.5) plus Tween. Bound TDP-43 was detected by Anti-TDP43 Monoclonal Antibody (R&D System Cat. No. MAB7778), followed by secondary anti-IgG antibody conjugated to HRP (R&D System, Cat. No. HAF007). Following to color development with TMB, as described in Example 43, the Optical Density of the samples was measured at 450 nm using an ELISA plate reader. Following color development, the % inhibition compared to control (no compound, DMSO control) for every compound was determined.
# As described in Example 43, Heparin in the form of Heparin-BSA conjugate is used as a source of HS-GAG. For each compound IC-50 value in TDP-43—heparin-BSA binding assay is shown in μM (micromolar). In some cases IC-50 was not measured and % inhibition at 30 μM compound concentration is shown instead. […] All assays were done on 96-well plates in duplicates and experiments were repeated at least twice. […]
# [4] = Abeta40/Heparin Activity (IC-50)
# [5] = read-out: Abeta40/Heparin Activity (IC-50)
# [6] = read-out: TDP43/Heparin Activity (IC-50)
# [7] = 30 μM compound, Abeta(1-42) oligomers, heparin-BSA
SMILES,IC50 ([1]; Abeta(1-42) oligomers),"IC50 [2, 4]",IC50 ([3]; TDP43/Heparin Activity (IC-50)),"IC50 [3, 6]",inhibition at 30 µM [1],other results
"C/C(=N\Nc1ncnc2cc(Cl)ccc12)c1ccc(-n2cnc(C)c2C)nc1 [Compound 16, 7-chloro-4-(2-(1-(6-(4,5-dimethyl-1H-imidazol-1-yl)pyridin-3-yl)ethylidene)hydrazineyl)quinazoline phosphate]",5.48 µM,4.37 µM,2.16 µM,,,
"C/C(=N\Nc1ncnc2cc(Cl)ccc12)c1ccc(-n2cc[n+](C)c2)nc1 [Compound 17, (E)-1-(5-(1-(2-(7-chloroquinazolin-4-yl)hydrazineylidene)ethyl)pyridin-2-yl)-3-methyl-1H-imidazol-3-ium iodide phosphoric acid salt]",11.7 µM,28.1 µM,33.6 µM,,,
"C/C(=N\Nc1ncnc2cc(Cl)ccc12)c1ccc(-n2cc(C)nc2C)nc1 [Compound 18, (E)-7-chloro-4-(2-(1-(6-(2,4-dimethyl-1H-imidazol-1-yl)pyridin-3-yl)ethylidene)hydrazineyl)quinazoline phosphoric acid salt]",13.6 µM,,,4.77 µM,,"IC50 [2, 5]: 3.31 µM"
"C/C(=N\Nc1ncnc2ccccc12)c1ccc(-n2cc(C)nc2C)nc1 [Compound 19, (E)-4-(2-(1-(6-(2,4-dimethyl-1H-imidazol-1-yl)pyridin-3-yl)ethylidene)hydrazineyl)quinazoline]",,10.2 µM,36.8 µM,,< 30%,
"CN1CCN(c2cc(Nc3ccnc4cc(Cl)ccc34)ccn2)CC1 [Compound 20, 7-chloro-N-(2-(4-methylpiperazin-1-yl)pyridin-4-yl)quinolin-4-amine]",,,,,< 30%,inhibition at 30 µM [2]: < 30%; inhibition at 30 µM [3]: < 30%
"C/C(=N\Nc1ncnc2cc(F)ccc12)c1ccc(-n2cnc(C)c2C)nc1 [Compound 21, (E)-4-(2-(1-(6-(4,5-dimethyl-1H-imidazol-1-yl)pyridin-3-yl)ethylidene)hydrazineyl)-7-fluoroquinazoline]",9.5 µM,,,4.6 µM,,"IC50 [2, 5]: 7.41 µM"
"CC(=NNc1ccnc2cc(Cl)ccc12)c1ccc(-n2cnc(C)c2C)nc1 [Compound 22, 7-chloro-4-(2-(1-(6-(4,5-dimethyl-1H-imidazol-1-yl)pyridin-3-yl)ethylidene)hydrazineyl)quinoline]",,16.3 µM,9.02 µM,,> 30%,
"CC(=NNc1ccnc2cc(Cl)ccc12)c1ccc(-n2cc[n+](C)c2)nc1 [Compound 23, 1-(5-(1-(2-(7-chloroquinolin-4-yl)hydrazineylidene)ethyl)pyridin-2-yl)-3-methyl-1H-imidazol-3-ium iodide]",,,,,,"inhibition at 30 µM [1, 7]: < 30%; inhibition at 30 µM [2]: > 30%; inhibition at 30 µM [3]: < 30%"
"C/C(=N\Nc1nncc2cc(Cl)ccc12)c1ccc(-n2cc(C)nc2C)nc1 [Compound 24, (E)-6-chloro-1-(2-(1-(6-(2,4-dimethyl-1H-imidazol-1-yl)pyridin-3-yl)ethylidene)hydrazineyl)phthalazine]",16.9 µM,,,0.89 µM,,"IC50 [2, 5]: 6.42 µM"
"Cc1ncn(-c2ccc(Nc3ncnc4cc(Cl)ccc34)cn2)c1C [Compound 25, 7-chloro-N-(6-(4,5-dimethyl-1H-imidazol-1-yl)pyridin-3-yl)quinazolin-4-amine]",9.9 µM,1.7 µM,2.45 µM,,,
"C/C(=N\Nc1ncnc2cc(F)ccc12)c1ccc(-n2cc[n+](C)c2)nc1 [Compound 26, (E)-1-(5-(1-(2-(7-fluoroquinazolin-4-yl)hydrazineylidene)ethyl)pyridin-2-yl)-3-methyl-1H-imidazol-3-ium phosphoric acid salt]",,10.2 µM,32.8 µM,,> 30%,
"C/C(=N\Nc1ncnc2cc(Cl)ccc12)c1ccc(-n2cc(C)nc2C)nc1 [Compound 27, (E)-7-chloro-4-(2-(1-(6-(2,4-dimethyl-1H-imidazol-1-yl)pyridin-3-yl)ethylidene)hydrazineyl)quinazoline hydrochloride]",,2.2 µM,,2.18 µM,> 30%,
"CC(=NNc1ncnc2cc(Cl)ccc12)c1ccnc(-n2cnc(C)c2C)c1 [Compound 28, 7-chloro-4-(2-(1-(2-(4,5-dimethyl-1H-imidazol-1-yl)pyridin-4-yl)ethylidene)hydrazineyl)quinazoline]",12.9 µM,,,5.73 µM,,"IC50 [2, 5]: 3.12 µM"
"C/C(=N\Nc1ncnc2cc(Cl)ccc12)c1cccc(N2CCN(C)CC2)c1 [Compound 30, 7-chloro-4-(2-(1-(3-(4-methylpiperazin-1-yl)phenyl)ethylidene)hydrazineyl)quinazoline]",,,12.2 µM,,> 30%,inhibition at 30 µM [2]: > 30%
"COc1cc(Nc2nncc3cc(Cl)ccc23)cnc1-n1cnc(C)c1C [Compound 31, 6-chloro-N-(6-(4,5-dimethyl-1H-imidazol-1-yl)-5-methoxypyridin-3-yl)phthalazin-1-amine phosphoric acid salt]",,23.3 µM,,,,"inhibition at 30 µM [1, 7]: < 30%; inhibition at 30 µM [3]: < 30%"
"COc1cc(Nc2cncc3cc(Cl)ccc23)cnc1-n1cnc(C)c1C [Compound 33, 7-chloro-N-(6-(4,5-dimethyl-1H-imidazol-1-yl)-5-methoxypyridin-3-yl)isoquinolin-4-amine phosphoric acid salt]",,,,,,"inhibition at 30 µM [1, 7]: < 30%; inhibition at 30 µM [2]: < 30%; inhibition at 30 µM [3]: < 30%"
